As a reminder, the EC50 is the midpoint of the concentration-response curve. Usually Emax stands for the greatest response seen or fitted, relative to the assay's reference.

10 molecules from ChEMBL document CHEMBL1156046, “Amiodarone and its putative metabolites fail to activate wild type hTAAR1” (Bioorg Med Chem Lett, 2009) can be followed below.

The structures appear in SMILES notation. Calls of active or inactive are those of the source. The calls are words filed in the database; no cut-off is given here.

Test [1] addresses T1, Trace amine-associated receptor 1 (Homo sapiens) (UniProt Q96RJ0).
T1 sequence (whole entry): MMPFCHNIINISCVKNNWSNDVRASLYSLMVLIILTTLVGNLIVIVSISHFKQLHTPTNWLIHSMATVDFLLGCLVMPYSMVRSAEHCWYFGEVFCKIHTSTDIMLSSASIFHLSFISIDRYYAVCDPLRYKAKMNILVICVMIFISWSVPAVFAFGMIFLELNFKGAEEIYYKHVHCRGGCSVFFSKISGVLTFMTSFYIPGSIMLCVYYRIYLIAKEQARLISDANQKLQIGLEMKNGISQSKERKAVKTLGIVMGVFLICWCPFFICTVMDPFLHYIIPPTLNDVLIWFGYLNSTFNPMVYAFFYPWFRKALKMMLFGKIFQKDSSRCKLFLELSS
Briefly: Activation of human TAAR1 expressed in CHOK1 cells assessed as cAMP accumulation at 0.1 to 1 uM. The test is classed as functional, cell-based. The conditions noted are these: CHO-K1. A general note: Changes in cAMP serve as a functional read-out for many G protein-coupled receptors.

Test [2] addresses T1, Trace amine-associated receptor 1 (Homo sapiens). Briefly: Activation of human TAAR1 expressed in CHOK1 cells coexpressing Galpha16 assessed as calcium accumulation at 0.1 to 1 uM relative to beta-phenethylamine. The conditions noted are these: CHO-K1. The test is classed as functional, cell-based.
Test [3] shares this target. The experiment in a line: Activation of human TAAR1 expressed in CHOK1 cells assessed as cAMP accumulation at 10 uM relative to beta-phenethylamine. Format: functional, cell-based. The conditions noted are these: CHO-K1.
Test [4] concerns the target T2, Trace amine-associated receptor 1 (Homo sapiens, UniProt Q96RJ0).
T2 sequence (Q96RJ0 whole entry): T1 sequence (whole entry)
The experiment in a line: Activation of human TAAR1 expressed in CHOK1 cells coexpressing Galpha16 assessed as calcium accumulation. The test is classed as functional, cell-based, CHO-K1.

The target in test [5] is T1, Trace amine-associated receptor 1 (Homo sapiens). Briefly: Activation of human TAAR1 expressed in CHOK1 cells coexpressing Galpha16 assessed as calcium accumulation relative to control. The test is classed as functional, cell-based. Conditions: CHO-K1.
In test [6] the test system is CHO. Briefly: Effect on calcium mobilization in CHO cells stably expressing Galpha16. Format: functional, cell-based. Conditions: Cricetulus griseus. (Calcium assays in cells follow changes in intracellular calcium, usually with a dye or a luminescent sensor.)
The subject of test [7] is CHO. Briefly: Effect on calcium mobilization in CHO cells stably expressing Galpha16 at 10 uM relative to beta-phenethylamine. The test is classed as functional, Cricetulus griseus.

As to `CCCCc1oc2ccccc2c1C(=O)c1cc(I)c(OCCN)c(I)c1`, the outcome in test [1] and in test [2] was inactive. In addition, the Activity in test [3] was less than 5%.
For `CCCCc1oc2ccccc2c1C(=O)c1ccc(OCCN(CC)CC)cc1`, the result in test [1] and in test [2] was inactive.
Turning to `CCCCc1oc2ccccc2c1C(=O)c1ccc(OCCN)cc1`, the outcome in test [1] and in test [2] was inactive.
For the molecule `CCCCc1oc2ccccc2c1C(=O)c1ccc(OCCNCC)c(I)c1`, the outcome in test [1] and in test [2] was inactive.
In the case of `CCCCc1oc2ccccc2c1C(=O)c1ccc(OCCNCC)cc1`, the result in test [1] and in test [2] was inactive. The Activity in test [3] is less than 5%.
As for `NCCOc1ccccc1`, the EC50 in test [4] was found to be 1.79 µM. Besides, the maximum response (Emax) in test [5] was 41%.
Take `CCCCc1oc2ccccc2c1C(=O)c1ccc(OCCN)c(I)c1`: the outcome in test [1] and in test [2] was inactive. The Activity in test [3] is less than 5%.
With `CCCCc1oc2ccccc2c1C(=O)c1cc(I)c(OCCN(CC)CC)c(I)c1`, the outcome in test [1] and in test [6] was inactive.
In the case of `CCCCc1oc2ccccc2c1C(=O)c1cc(I)c(OCCNCC)c(I)c1` [DESETHYLAMIODARONE], the outcome in test [1] and in test [2] was inactive. The Activity in test [7] was 44%.
`CCCCc1oc2ccccc2c1C(=O)c1ccc(OCCN(CC)CC)c(I)c1`: the result in test [1] and in test [2] was inactive.
